Measurements: US9629822B2, “Flavonoid based antiviral targets” (UNIVERSITY OF CENTRAL FLORIDA RESEARCH FOUNDATION, INC., priority 2012, dated 2017)
Read-outs that look alike come from different tables or passages of the source.

Assays:
[1] = system: mock transfected 293T HEK cells; assay: PathDetect Elk1 luminescence in mock transfected (empty pcDNA3 vector) 293T HEK cells, off-target effect; format: cell-based, human; conditions: for activation at 10 µM: Homo sapiens, read-out: Effect(%) on mock cells with each drug at 10 μM
In short: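 HEK 293T cells were transiently transfected with PathDetect Elk1/luciferase and empty pcDNA3, then exposed to 10 μM compound in medium with 1% FBS and 1% DMSO for 20-24 h at 37 °C. BrightGlo luminescence was compared with the 1% DMSO control: % effect = 100%×(mock/DMSO) − 100%.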

[2] = TZMbI assay for cell safety (cell viability and growth, CytoTox Glo); conditions: human, TZMbI cells, read-out: % decrease in viability compared to 0.1% DMSO vehicle based on viable cell luminescence
Experimental: Assays were performed below in accordance with the procedures set forth in The Journal of Immunology, 2006, 176, pp. 6900-905; AIDS Research and Human Retroviruses, 2004, 20:11, pp. 1157-1665.^32,33 TZMbI assays for cell safety were performed to identify potential anti-viral compounds. TZMbI assays for cell safety were performed to identify potential anti-viral compounds per the methods.

[3] = system: HIV-1 BaL; assay: Anti-HIV assay (luciferase, HIV-1 BaL infection); format: cell-based
In short: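 Cells infected with HIV-1 BaL at 2 ng/mL p24 (MOI approx 0.02) in compound presence. Infection read out by luciferase.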

[4] = system: CHO cells; assay: CHO cell toxicity, MTS assay, 48 h; format: cell-based, Chinese hamster; conditions: Cricetulus griseus, CHO
In short: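 CHO cells plated at 10,000 cells/mL, incubated overnight, then exposed to drug (final DMSO <1%) for 48 h at 37 °C, 5% CO2, in triplicate. MTS added for a further 4 h; absorbance read at 490 nm. IC50 taken from relative A490 versus drug concentration.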

[5] = 10 μM vs 1% DMSO control, Equation 1
[6] = 10 μM, Experiment 1B, 2 ng/mL p24 HIV-1 BaL
[7] = Human immunodeficiency virus 1, BAL, 1.25 μM, Experiment 2B
[8] = Human immunodeficiency virus 1, BAL, 2.5 μM, Experiment 2B
[9] = Human immunodeficiency virus 1, BAL, 5 μM, Experiment 2B
[10] = Human immunodeficiency virus 1, BAL, 10 μM, Experiment 1B, 2 ng/mL p24 HIV-1 BaL
[11] = Human immunodeficiency virus 1, BAL, 10 μM, Experiment 2B
[12] = Human immunodeficiency virus 1, BAL, 20 μM, Experiment 2B
[13] = 37° C., MTS reagent, read-out: CHO 48 h IC50 value
[14] = Human immunodeficiency virus 1, BAL, 40 μM, Experiment 2B
[15] = Human immunodeficiency virus 1, BAL, 80 μM, Experiment 2B

Structure (SMILES) | cytotoxicity at 1.25 μM ([2]; Experiment 2A) | cytotoxicity at 2.5 μM ([2]; Experiment 2A) | cytotoxicity at 5 μM ([2]; Experiment 2A) | cytotoxicity at 10 μM ([2]; Experiment 1A) | cytotoxicity at 10 μM ([2]; Experiment 2A) | cytotoxicity at 20 μM ([2]; Experiment 2A) | RLU (relative luciferase units) ([3]; 1.25 μM, Experiment 2B) | RLU (relative luciferase units) ([3]; 2.5 μM, Experiment 2B) | RLU (relative luciferase units) ([3]; 5 μM, Experiment 2B) | RLU (relative luciferase units) [3, 6] | RLU (relative luciferase units) ([3]; 10 μM, Experiment 2B) | RLU (relative luciferase units) ([3]; 20 μM, Experiment 2B) | inhibition at 1.25 µM [3, 7] | inhibition at 2.5 µM [3, 8] | inhibition at 5 µM [3, 9] | inhibition at 10 µM [3, 10] | inhibition at 10 µM [3, 11] | inhibition at 20 µM [3, 12] | IC50 [4, 13] | activation at 10 µM [1, 5] | other results
COc1ccc(Br)cc1/C=C/C(=O)c1c(O)cccc1OCc1ccccc1 [Compound 8l, (E)-1-(2-(Benzyloxy)-6-hydroxyphenyl)-3-(5-bromo-2-methoxyphenyl)prop-2-en-1-one] | -2.83% | -0.43% | 2.2% | 29.8% | 28.7% | 55.2% | 262.26 RLU | 215.14 RLU | 125.95 RLU | 57.3 RLU | 23.18 RLU | 16.87 RLU | -0.55% | 17.2% | 54.4% | 93.9% | 91.5% | 94.7% | 8.1 ± 1 µM | – | toxicity at 10 μM in HEK cells, in words ([1]; 10 μM): very toxic; Effect(%) on mock cells with each drug at 10 μM [1, 5]: Toxic; IC50 ([3]; Human immunodeficiency virus 1, BAL, inferred from 54.36% inhibition at 5 μM): < 5 µM
COc1ccc(Br)cc1/C=C/C(=O)c1ccc2ccccc2c1O [Compound 8m, (E)-3-(5-bromo-2-methoxyphenyl)-1-(1-hydroxynaphthalen-2-yl)prop-2-en-1-one] | 10.3% | 17.9% | 10.7% | 20.3% | 38.2% | 90% | 324.10 RLU | 283.48 RLU | 251.02 RLU | 437.6 RLU | 170.42 RLU | 160.21 RLU | -24.3% | -9.08% | 9.04% | 53.3% | 37.7% | 49.9% | 15.6 ± 1 µM | 35% | Effect(%) on mock cells with each drug at 10 μM [1, 5]: 35%
COc1ccccc1-c1oc2ccccc2c(=O)c1O [Compound 9a, 3-Hydroxy-2-(2-methoxyphenyl)-4H-chromen-4-one] | – | – | -3.31% | – | -24.9% | -21.6% | – | – | 16.52 RLU | – | 16.51 RLU | 36.83 RLU | – | – | -3.31% | – | -24.9% | -21.9% | > 100 µM | -1% | cytotoxicity at 40 μM ([2]; Experiment 2A): -25.4%; cytotoxicity at 80 μM ([2]; Experiment 2A): -7.86%; RLU (relative luciferase units) ([3]; 40 μM, Experiment 2B): 65.50 RLU; RLU (relative luciferase units) ([3]; 80 μM, Experiment 2B): 59.24 RLU; inhibition at 40 µM [3, 14]: -25.4%; inhibition at 80 µM [3, 15]: -7.86%
COc1ccc(Br)cc1-c1oc2ccccc2c(=O)c1O [Compound 9b, 2-(5-Bromo-2-methoxyphenyl)-3-hydroxy-4H-chromen-4-one] | – | – | -7.08% | -2.1% | -19% | -25.9% | – | – | 12.99 RLU | 736.7 RLU | 23.85 RLU | 32.82 RLU | – | – | -7.08% | 21.3% | -19% | -25.9% | 88.5 ± 10.1 µM | -11% | cytotoxicity at 40 μM ([2]; Experiment 2A): -29.8%; cytotoxicity at 80 μM ([2]; Experiment 2A): 13.3%; RLU (relative luciferase units) ([3]; 40 μM, Experiment 2B): 47.61 RLU; RLU (relative luciferase units) ([3]; 80 μM, Experiment 2B): 73.47 RLU; inhibition at 40 µM [3, 14]: -29.8%; inhibition at 80 µM [3, 15]: 13.3%
COc1ccc(Cl)cc1-c1oc2ccccc2c(=O)c1O [Compound 9h, 2-(5-chloro-2-methoxyphenyl)-3-hydroxy-4H-chromen-4-one] | -8.02% | -10.4% | -13.9% | 23.6% | 1.57% | 7.83% | 1.61 RLU | 16.44 RLU | 18.32 RLU | 367.6 RLU | 49.04 RLU | 20.14 RLU | -8.02% | -10.4% | -13.9% | 60.7% | 1.57% | 7.83% | 25 ± 2.2 µM | 2% | Effect(%) on mock cells with each drug at 10 μM [1, 5]: 2%
COc1ccccc1-c1cc(=O)c2c(O)cccc2o1 [Compound 12a, 5-Hydroxy-2-(2-methoxyphenyl)-4H-chromen-4-one] | 6.38% | 41.7% | 123% | 44.5% | 43% | 131% | −3.22 RLU | 28.09 RLU | 56.78 RLU | 152.1 RLU | 83.62 RLU | 88.46 RLU | 6.38% | 41.7% | 123% | 83.7% | 43% | 131% | – | – | activation at 10 µM [1]: 2%; IC50 ([4]; read-out: CHO 48 h IC50 value (μM)): > 100 µM
COc1ccc(Br)cc1-c1cc(=O)c2c(O)cccc2o1 [Compound 12b, 2-(5-Bromo-2-methoxyphenyl)-5-hydroxy-4H-chromen-4-one] | -8.84% | -2.4% | -3.2% | 34.9% | 10.4% | 49.1% | −7.32 RLU | 0.82 RLU | −1.73 RLU | 445.1 RLU | 27.57 RLU | 36.35 RLU | -8.84% | -2.4% | -3.2% | 52.4% | 10.4% | 49.1% | 75.2 ± 8.7 µM | -16% | –
